The text below walks through data of patent US4816463A, “Substituted diimidazo [1,5-a: 4',5'-d]pyridines having antihypertensive activity” (Warner-Lambert Company, priority 1987, dated 1989).

The subject of test [1] is 2 kidney, 1-clip Goldblatt hypertensive rat (RHR). Briefly: antihypertensive evaluation (AHP3): blood pressure in conscious 2 kidney, 1-clip Goldblatt (renal) hypertensive rats (RHR). The test is classed as in vivo. The following applies: 30 mg/kg ip in RHR, read-out: Max % decrease in blood pressure. The source says:
The continuous monitoring of pulsatile blood pressure (BP) from unrestrained conscious rats surgically equipped with polyethylene cannulas was accomplished by means of a computer assisted data capture scheme (CADCS). The basic elements of the methodology are the cannulation procedure and the CADCS.
Cannulas fabricated from polyethylene tubing were inserted into the aorta via an undersized puncture hole below the renal arteries. The puncture hole was made by a 23 G disposable needle with a section of the aorta clamped off above and below the puncture site. The cannulas, consisting of a PE100 (0.86 mm ID) body and a PE50 (0.58 mm ID) tip, were attached to a trocar, inserted through the psoas muscle, and passed subcutaneously along the midline of the back and externalized between the ears. The cannulas were anchored to the psoas muscle and between the scalulae (3-0 green braided suture). […] Each rat was then given penicillin 30,000 units subcutaneously (Penicillin G Procaine Sterile Suspension).
The rats were fitted with a harness-spring-swivel assembly designed to protect the cannula and to provide the rat relative freedom of movement. The harnesses were fabricated from nylon hook and loop tape cemented to a metal plate to which spring wires (18-8 stainless steel), were attached to brass swivels. […]

Test [2] concerns the target rat adrenal receptor preparations (angiotensin II binding). The test is described as follows: inhibition of 125I-angiotensin II binding to rat adrenal receptor preparations. Particulars: read-out: IC50 (μM) for inhibition of 125I angiotensin II binding to rat adrenal receptor preparations.
Test [3] has as its system spontaneously hypertensive rat (SHR). The test is described as follows: antihypertensive evaluation (AHP3): blood pressure in conscious spontaneously hypertensive rats (SHR). The class given is in vivo. Particulars: 30 mg/kg PO in SHR, read-out: Max % decrease in blood pressure. On the procedure:
Thus, for example, compounds of formula I when administered intrapertoneally or orally to 2 kidney, 1-clip Goldblatt (renal) hypertensive rats (See S. Sen, et al., "Role of Renin-Anfgiotensin System in Chronic Renal Hypertensive Rats," Hypertension 1: 427-4343 (1979) and Clin. Soc. 57: 53-62, 1979, "Antihypertensive Effect of Prolonged Blockade of Angiotensin Formation in Benign and Malignant, one- and two-kidney Goldblatt Hypertensive Rats".) at doses in the range of 1-100 mg/kg cause 10-80 mmHg drops in blood pressure. […] Angiotensin binding inhibition activity and blood pressure lowering activity in renal hypertensive rats of the optimally substituted examples of formula I are listed in Table 1. Blood pressure lowering activity in spontaneously hypertensive rats of optimally substituted examples of formula II are listed in Table 2. […]
CADCS: The pulsatile blood pressure of each of 32 rats was monitored continuously by two signal conditioning units (Gould, Cleve., Ohio). The signals from these units were monitored and digital data for mean, systolic, and diastolic blood pressures as well as for heart rate were calculated every 5 min by two in-laboratory computers (Hewlett Packard, Cupertino, Ca.). […]

On to `O=C(O)C1Cc2c(ncn2Cc2ccccc2)CN1C(=O)C1c2ccccc2-c2ccccc21` (racemic) [Example 29, 1H-Imidazo[4,5-c]pyridine-6-carboxylic acid, 5-[(9H-fluoren-9-yl)carbonyl]-4,5,6,7-tetrahydro-1-(phenylmethyl)-, (±)-], for which, in test [1], the change in vivo at 30 mg/kg is -22%. In test [2], the IC50 turned out to be 8 µM.

As to `CSc1ccc(N2C(=O)C3Cc4[nH]cnc4CN3C2=O)cc1` (stereo not drawn) [Example 158, 8a,9-Dihydro-7-[4-(methylthio)phenyl]-1H-diimidazo[1,5-a:4',5'-d]pyridine-6,8(4H,7H)-dione], in test [3], the change in vivo at 30 mg/kg was -17%.
